# Assay results taken from patent US20100292345A1, “THERAPEUTIC USES OF CANNABIGEROL” (GW PHARMA LIMITED, priority 2007, published 2010).
# Legend:
# [1] = molecular target: T1, CB1 receptors in mouse brain tissue (Mus musculus, UniProt P47746); test: [3H]CP55940 radioligand displacement assay, mouse whole brain membranes; format: binding
# T1 construct: Whole mouse brain membranes were prepared as described by Thomas et al., 2004; from tissue; host or cells: whole mouse brain membranes
# Description: (§1) Whole mouse brain membranes were prepared as described by Thomas et al., 2004. CHO cells were stably transfected with cDNA encoding human cannabinoid CB2 receptors and were maintained at 37° C. and 5% CO2 in Dulbecco's Modified Eagle's Medium nutrient mixture.
# (§2) The assays were carried out with the established CB1 and CB2 cannabinoid receptor agonist CP55940. This was radiolabelled to form [^3H]CP55940.
# (§3) Binding of the radiolabelled compound was initiated by the addition of either the brain membranes (33 μg protein per tube) or the transfected hCB2 cells (25 μg protein per tube).
# (§4) All assays were performed at 37° C. for 60 min before termination by addition of ice-cold wash buffer (50 mM Tris buffer, 1 mg ml^−1 bovine serum albumin, pH 7.4) and vacuum filtration using a 24-well sampling manifold and GF/B filters that had been soaked in wash buffer at 4° C. for at least 24 h.
# (§5) The test compounds were also tested to determine whether they were able to displace the agonist CP55940 from the binding site of the CB1 or CB2 receptor. The Ki-value that resulted from this investigation gives an insight into how strongly the test compound competes with the agonist for the binding site.
# [2] = tested on: CB1 receptors in mouse brain tissue; test: [35S]GTPγS binding assay, mouse brain membranes; format: biochemical; settings: conclusion from the example data
# Description: as §1
# The assays were carried out with GTPγS binding buffer (50 mM Tris-HCl; 50 mM Tris-Base; 5 mM MgCl2; 1 mM EDTA; 100 mM NaCl; 1 mM DTT; 0.1% BSA) in the presence of [^35S]GTPγS and GDP, in a final volume of 500 μl. Binding was initiated by the addition of [^35S]GTPγS to the tubes. The drugs were incubated in the assay for 60 min at 30° C. The reaction was terminated by a rapid vacuum filtration method using Tris buffer (50 mM Tris-HCl; 50 mM Tris-Base; 0.1% BSA), as described previously, and the radioactivity was quantified by liquid scintillation spectrometry.
# The agonism of the CB1 or CB2 receptors by CP55940 results in a response in the cell. This response is the binding of [^35S]GTPγS to the cell membrane.
# Changes in the response in the presence of the test compound can be measured in order to determine whether the compound is acting as an agonist, a neutral antagonist or an inverse agonist. An agonist will increase the response, a neutral antagonist will have no effect on the response and an inverse agonist will stop or reverse the response. […]
# [3] = molecular target: T2, human cannabinoid CB2 receptors (Homo sapiens, UniProt P34972); test: [3H]CP55940 radioligand displacement assay, hCB2-CHO cell membranes; settings: membranes prepared from hCB2-CHO cells; 37° C., 60 min; read-out: Ki, displacement of [3H]CP55940 from specific binding sites
# T2 construct: expressed in transfected cells; host or cells: CHO cells, stably transfected
# T2 sequence (P34972 whole entry): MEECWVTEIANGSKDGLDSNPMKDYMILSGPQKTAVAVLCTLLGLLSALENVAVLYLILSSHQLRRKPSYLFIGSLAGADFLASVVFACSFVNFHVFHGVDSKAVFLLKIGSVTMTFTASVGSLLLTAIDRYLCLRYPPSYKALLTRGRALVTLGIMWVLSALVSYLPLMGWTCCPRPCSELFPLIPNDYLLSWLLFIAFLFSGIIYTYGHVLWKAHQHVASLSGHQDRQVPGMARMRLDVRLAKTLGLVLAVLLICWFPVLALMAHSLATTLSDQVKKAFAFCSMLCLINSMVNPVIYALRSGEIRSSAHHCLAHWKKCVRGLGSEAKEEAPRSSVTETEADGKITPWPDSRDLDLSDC
# Description: as §1, §2, §3, §4, §5
# [4] = molecular target: T2, human cannabinoid CB2 receptors; test: Inhibition of forskolin-stimulated cyclic AMP production in hCB2-CHO cells; format: cell-based; set-up: Emax, inhibition of forskolin-stimulated cyclic AMP production: unit not given here
# T1 sequence (P47746 whole entry): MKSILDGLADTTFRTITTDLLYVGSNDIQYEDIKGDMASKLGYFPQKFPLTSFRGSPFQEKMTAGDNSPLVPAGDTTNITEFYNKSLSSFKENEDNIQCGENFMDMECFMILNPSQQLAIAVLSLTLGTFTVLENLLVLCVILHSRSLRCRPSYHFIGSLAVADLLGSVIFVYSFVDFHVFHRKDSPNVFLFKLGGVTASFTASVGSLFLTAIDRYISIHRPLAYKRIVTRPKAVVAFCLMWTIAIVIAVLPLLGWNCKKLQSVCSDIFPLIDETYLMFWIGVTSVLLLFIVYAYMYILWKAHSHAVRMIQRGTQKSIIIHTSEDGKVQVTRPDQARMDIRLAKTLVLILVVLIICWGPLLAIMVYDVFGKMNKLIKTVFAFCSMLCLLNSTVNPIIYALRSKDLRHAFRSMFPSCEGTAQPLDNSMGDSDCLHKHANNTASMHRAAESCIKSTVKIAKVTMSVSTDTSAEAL
compound,measurement,setting,value
"CCCCCc1cc(O)c(C/C=C(\C)CCC=C(C)C)c(O)c1 [CBG, cannabigerol]",Ki,[1],439 nM
same,functional character at CB1 receptor,[2],partial agonist
same,Ki,[3],337 nM
same,functional character at CB2 receptor,[4]; conclusion from the example data,partial agonist
same,EC50,"[4]; hCB2-CHO cells, 5 μM forskolin",388 nM
same,"Emax, inhibition of forskolin-stimulated cyclic AMP production","[4]; hCB2-CHO cells, 5 μM forskolin",28.3
same,efficacy relative to CP55940 in inhibiting forskolin-stimulated cyclic AMP production,"[4]; hCB2-CHO cells, 5 μM forskolin, submicromolar concentrations",efficacy less than that of CP55940
